{"source": "patent US20260284051A1", "about": "“METHIONINE ADENOSYLTRANSFERASE 2A (MAT2A) INHIBITOR COMBINATIONS AND USES THEREOF” (INSILICO MEDICINE IP LIMITED, priority 2023, published 2026)", "key": {"MAT2A": {"biological_target": "MAT2A (Homo sapiens, UniProt P31153)", "sequence (P31153 whole entry, species assumed)": "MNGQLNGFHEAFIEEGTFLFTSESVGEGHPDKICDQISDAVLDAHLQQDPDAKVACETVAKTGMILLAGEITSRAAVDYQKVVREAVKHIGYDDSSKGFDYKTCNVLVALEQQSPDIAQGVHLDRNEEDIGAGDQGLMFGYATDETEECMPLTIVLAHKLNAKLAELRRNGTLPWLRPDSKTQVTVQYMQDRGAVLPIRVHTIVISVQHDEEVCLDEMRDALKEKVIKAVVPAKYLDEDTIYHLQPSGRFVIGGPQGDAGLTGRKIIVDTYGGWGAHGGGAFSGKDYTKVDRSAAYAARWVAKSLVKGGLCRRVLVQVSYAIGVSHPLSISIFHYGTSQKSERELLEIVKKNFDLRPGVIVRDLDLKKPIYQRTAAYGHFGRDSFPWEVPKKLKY", "test": "MAT2A Biochemical Assay", "details": "read-out: MAT2A enzymatic IC50", "experimental": "Example A: MAT2A Biochemical Assay\nCompounds described herein were tested as follows:\n• (1). Prepared 1×Assay buffer. • (2). Preparation of compound concentration gradient: the compounds test condition were […], 3-fold dilution, 10 doses, singlet or duplicate. 100x concentration compounds were prepared in 384-well plate. Then used Echo 550 to transfer 250 nl to a 384-reaction plate for later use. Added 250 nl of 100% DMSO to the negative and positive control wells. • (3). Prepared 1.67× final concentration enzyme solution with 1×Assay buffer. • (4). Added 15 μl of 1.67× Enzyme solution to the compound wells and positive control wells; added 15 μl of 1×Assay buffer to the negative control wells. • (5). Centrifuged at 1000 rpm for 30 seconds and incubate for 15 minutes. • (6). Prepared 2.5× final concentration Substrate mix solution with 1×Assay buffer. • (7). Added 10 μl of 2.5× final concentration Substrate mix solution to start the reaction. • (8). Centrifuged at 1000 rpm for 30 seconds and incubate for 150 minutes. • (9). Added […] Biomol Green to stop the reaction, centrifuge at 1000 rpm for 30 seconds and incubate for 15 minutes. read O.D.620, process data.\n• (1) Using GraphPad Prism 5.\n[formula] • (3) Max signal was obtained from the positive control wells. • (4) Min signal was obtained from the negative control wells."}, "[1]": {"tested_on": "NCI-H838 MTAP null xenografts", "test": "Efficacy study of NCI-H838 human lung cancer xenograft model in NOD SCID mice", "format": "in vivo", "details": "for Tumor volume (mm^3) Final (mean): Mean ± SD", "description": "Efficacy Study of NCI-H838 Human Lung Cancer Xenograft Model in NOD SCID Mice Methods:\nThe NCI-H838 cancer cells were maintained in vitro with RPMI-1640 medium supplemented with 10% fetal bovine serum at 37TC in an atmosphere of 5% CO2 in the air. The cells in exponential growth phase were harvested and quantitated by cell counter before tumor inoculation.\nNOD SCID mice, female, 6-8 weeks, weighing approximately 20-22 g, All the mice were purchased from Shanghai Lingchang Bio-Tech Co., Ltd.\nEach mouse was inoculated subcutaneously at the right flank with NCI-H838 cells in a 0.1 mL of PBS mixed with Matrigel (1:1) for tumor development (5×10^6 cells/mouse). Dosing was started when the average tumor size reached approximately ~150 mm^3 for the tumor efficacy study with tool and med chem molecules to look for efficacy vs vehicle tumor growth.\nMean tumor volume at dosing start was approximately 146.51 mm^3, with six mice randomized to each treatment group. In the NCI-H838 MTAP null tumor model, mice were dosed orally, once per day (QD) with vehicle, once per day (QD) with Compound 1 at 3, 10 mg/kg, mice were intravenous, once per day (QD) with PRMT5 inhibitor MRTX1719 at 50 mg/kg, or Compound 1 combined with MRTX1719 at each dose level."}, "[2]": {"tested_on": "HCC15 MTAP null xenografts", "test": "Efficacy study of HCC15 human lung cancer xenograft model in NOD SCID mice", "format": "in vivo", "details": "for Tumor volume (mm^3) Final (mean): Mean ± SD", "experimental": "Efficacy Study of HCC15 Human Lung Cancer Xenograft Model in NOD SCID Mice Methods:\nThe HCC15 cells were maintained in vitro as a monolayer culture in 90% 1640+10% FBS, 100U/ml penicillin and 100 μg/ml streptomycin at 37° C. in an atmosphere of 5% CO2 in air. The tumor cells were routinely subcultured at a ratio of 1:2 to 1:3 every 3-4 days. Alternatively, Cultures were maintained by addition or replacement of fresh medium. Started cultures at 5×10^5 cells/mL and maintained between 0.5×10^5 and 2×10^6 cells/ml.\nNOD SCID mice, female, 6-8 weeks, weighing approximately 20-22 g.\nEach mouse were inoculated subcutaneously at the right flank with HCC15 cells in a 0.2 mL mixture of 1640 for tumor development (5×10^6 cells/mouse). Dosing was started when the average tumor size reaches approximately 100-200 mm^3 for the tumor efficacy study with tool and med chem molecules to look for efficacy vs vehicle tumor growth.\nMean tumor volume at dosing start was approximately 133.09 mm^3, with ten mice randomized to each treatment group. In the HCC15 MTAP null tumor model, mice were dosed orally, once per day (QD) with Vehicle, once per day (QD) with Compound 1 at 3 mg/kg, once per day (QD) with AG270 at 100 mg/kg, mice were intravenous, per week with Docetaxel at 2.5 mg/kg, or Compound 1 combined with Docetaxel at each dose level."}, "[3]": {"details": "combination: Compound 1 3 mg/kg QD + MRTX1719 50 mg/kg QD"}, "[4]": {"details": "combination: Compound 1 10 mg/kg QD + MRTX1719 50 mg/kg QD"}}}
{"compound": "C#CCNc1nc(=O)n(-c2cccnc2C)c2cc(C(F)(F)F)cc(OC)c12", "note": "[Example 36, 5-methoxy-1-(2-methylpyridin-3-yl)-4-(prop-2-yn-1-ylamino)-7-(trifluoromethyl)quinazolin-2(1H)-one]", "values": [{"measurement": "IC50", "setting": "MAT2A", "value": "< 50", "unit": "nM"}, {"measurement": "TGI (%)", "setting": "[1]; Compound 1 3 mg/kg orally QD", "value": 1.6, "unit": "%"}, {"measurement": "Tumor volume (mm^3) Final (mean)", "setting": "[1]; Compound 1 3 mg/kg orally QD", "value": "2029 ± 239", "unit": "mm^3"}, {"measurement": "TGI (%)", "setting": "[1]; Compound 1 10 mg/kg orally QD", "value": 19.9, "unit": "%"}, {"measurement": "Tumor volume (mm^3) Final (mean)", "setting": "[1]; Compound 1 10 mg/kg orally QD", "value": "1678 ± 113", "unit": "mm^3"}, {"measurement": "effect on tumor growth (in words)", "setting": "[1]; combination of Compound 1 (3, 10 mg/kg) and MRTX1719 50 mg/kg", "value": "significantly inhibited tumor growth"}, {"measurement": "synergy effect", "setting": "[1]; combination: Compound 1 3 mg/kg + MRTX1719 50 mg/kg", "value": 1.02}, {"measurement": "TGI (%)", "setting": "[1]; [3]", "value": 83.2, "unit": "%"}, {"measurement": "Tumor volume (mm^3) Final (mean)", "setting": "[1]; [3]", "value": "468 ± 115", "unit": "mm^3"}, {"measurement": "synergy effect", "setting": "[1]; combination: Compound 1 10 mg/kg + MRTX1719 50 mg/kg", "value": 1.21}, {"measurement": "TGI (%)", "setting": "[1]; [4]", "value": 103.1, "unit": "%"}, {"measurement": "Tumor volume (mm^3) Final (mean)", "setting": "[1]; [4]", "value": "88 ± 7", "unit": "mm^3"}, {"measurement": "Tumor volume (mm^3) Final (mean)", "setting": "[2]; Compound 1 3 mg/kg orally QD", "value": "596 ± 63", "unit": "mm^3"}, {"measurement": "TGI (%)", "setting": "[2]; Compound 1 3 mg/kg orally QD, listed as Compound 1, 3 mg/kg", "value": 49.6, "unit": "%"}, {"measurement": "effect on tumor growth (in words)", "setting": "[2]; combination of Compound 1 3 mg/kg and Docetaxel 2.5 mg/kg", "value": "significantly inhibited tumor growth"}, {"measurement": "Tumor volume (mm^3) Final (mean)", "setting": "[2]; combination: Compound 1 3 mg/kg QD + Docetaxel 2.5 mg/kg per week", "value": "399 ± 42", "unit": "mm^3"}, {"measurement": "TGI (%)", "setting": "[2]; combination: Compound 1 3 mg/kg QD + Docetaxel 2.5 mg/kg per week, listed as Compound 1", "value": 71.2, "unit": "%"}]}
